In paper PMC11678328, “Phosphine Oxide Indenoquinoline Derivatives: Synthesis and Biological Evaluation as Topoisomerase I Inhibitors and Antiproliferative Agents” (Molecules, 2024):

Legend:
[1] = molecular target: T1, human TOP1 (Homo sapiens, UniProt P11387); assay: TOP1 supercoiled plasmid DNA relaxation assay; format: biochemical; details: for Persistence of TOP1 inhibition over the time course / TOP1 relaxation activity after preincubation of compound with TOP1: 100 μM; for Persistence of TOP1 inhibition over the time course: in words; for TOP1 Inhibition 1 min: 1 min reaction; for TOP1 Inhibition 1 min / TOP1 Inhibition 3 min / TOP1 Inhibition 5 min: compounds at 100 μM, semiquantitative; for TOP1 Inhibition 3 min: 3 min reaction; for TOP1 Inhibition 5 min: 5 min reaction; for TOP1 relaxation activity after preincubation of compound with TOP1: compound incubated with TOP1 for 15 min at 37 °C, then DNA added
T1 construct: made in house; host or cells: Saccharomyces cerevisiae TOP1 null strain RS190, plasmid pHT143 (GAL promoter)
T1 sequence (P11387 1-765): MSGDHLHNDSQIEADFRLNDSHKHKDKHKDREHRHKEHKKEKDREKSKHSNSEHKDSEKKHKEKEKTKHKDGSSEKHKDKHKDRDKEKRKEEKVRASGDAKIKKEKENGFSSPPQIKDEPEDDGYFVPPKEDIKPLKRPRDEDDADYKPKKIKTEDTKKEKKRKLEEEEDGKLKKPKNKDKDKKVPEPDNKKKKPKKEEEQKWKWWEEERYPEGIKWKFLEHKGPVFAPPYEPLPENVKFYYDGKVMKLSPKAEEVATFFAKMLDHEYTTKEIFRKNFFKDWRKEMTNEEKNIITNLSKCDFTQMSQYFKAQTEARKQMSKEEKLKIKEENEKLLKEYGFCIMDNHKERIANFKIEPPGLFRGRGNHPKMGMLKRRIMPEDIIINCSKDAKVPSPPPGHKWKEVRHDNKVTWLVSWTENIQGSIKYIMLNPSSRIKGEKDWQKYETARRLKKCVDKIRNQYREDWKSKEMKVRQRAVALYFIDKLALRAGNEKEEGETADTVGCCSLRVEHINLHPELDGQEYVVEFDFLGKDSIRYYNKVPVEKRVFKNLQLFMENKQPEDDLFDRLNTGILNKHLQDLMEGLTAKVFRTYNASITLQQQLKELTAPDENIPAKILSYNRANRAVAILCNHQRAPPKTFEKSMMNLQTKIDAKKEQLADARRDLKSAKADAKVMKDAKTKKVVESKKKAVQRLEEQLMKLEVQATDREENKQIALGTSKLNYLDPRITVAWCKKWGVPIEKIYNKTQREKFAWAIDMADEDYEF
Description: The effect of the previously prepared compounds as TOP1 inhibitors was studied. A conventional supercoiled plasmid relaxation assay was used to determine if the newly fused tetrahydroindenoquinolines 8, more aromatic indenoquinolines 9, and carbonyl derivatives 10 with phosphine oxide substituents inhibit human TOP1 activity by converting supercoiled plasmid DNA to its relaxed form. In these experiments, compound samples were mixed with the enzyme followed by the addition of a supercoiled plasmid DNA substrate, and incubation continued for increasing time intervals (1 min, 3 min, and 5 min). The reaction was terminated by the addition of SDS. DNA relaxation products were then resolved by 1% agarose electrophoresis gel and visualized by gel red staining.
The yeast Saccaromyces cerevisiae TOP1 null strain RS190, which was used for the expression of recombinant human TOP1, was a kind gift from R. Sternglanz (State University of New York, Stony Brook, NY, USA). Plasmid pHT143, for the expression of recombinant TOP1 under the control of an inducible GAL promoter, was described. The plasmids pHT143 were transformed into the yeast S. cerevisiae strain RS190. The proteins were expressed and purified by affinity chromatography essentially as described. The protein concentrations were estimated from Coomassie blue-stained SDS/polyacrylamide gels by comparison to serial dilutions of bovine serum albumin (BSA).
TOP1 activity was assayed using a DNA relaxation assay by incubating 110 ng/mL of TOP1 with 0.5 µg of negatively supercoiled pUC18 in […] of reaction buffer (20 mM Tris HCl, 0.1 mM Na2EDTA, 10 mM MgCl2, […] acetylated BSA, and 150 mM KCl, pH 7.5). The effect of the synthesized phosphorylated derivatives 8, 9, and 10 on the TOP1 activity was measured by adding different concentrations of the compounds, at different time points, as indicated in the text. The reactions were performed at 37 °C stopped by the addition of 0.5% SDS after the indicated time intervals. The samples were protease-digested and electrophoresed in a horizontal 1% agarose gel in 1xTBE (50 mM Tris, 45 mM boric acid, 1 mM EDTA) at 25V during 18h. The gel was stained with gel red (BIOTIUM, 5 mg/mL), destained with water, and photographed under UV illumination. Since all drugs were dissolved in dimethyl sulfoxide (DMSO), a […] control sample containing the same DMSO concentration as the samples incubated with the drugs was included in all experiments.

[2] = tested on: MRC-5, lung fibroblast cells; assay: CCK-8 cytotoxicity assay, MRC5; format: cell-based, human; details: Homo sapiens; MRC5 non-cancerous cells, 48h, CCK-8
Description: (§1) The cytotoxic effects of the newly synthesized diphenyl(tetrahydro-5H-indeno[2,1-c]quinolin-2-yl)phosphine oxides 8, diphenyl(7H-indeno[2,1-c]quinolin-2-yl)phosphine oxides 9, and diphenyl(7-oxo-7H-indeno[2,1-c]quinolin-2-yl)phosphine oxides 10 derivatives were studied against several human cell lines: A549 (carcinomic human alveolar basal epithelial cell), SKOV3 (human ovarian carcinoma), and HEK293 (human embryonic kidney). Furthermore, in order to analyze the selective cytotoxicity facing exclusively cancerous cell lines, toxicity against a non-cancerous cell line (MRC-5, lung fibroblast cells) was also evaluated (Table 3). The cell counting kit (CCK-8) assay was employed to assess the growth inhibition and cell proliferation inhibitory activities of the compounds, which are described in Table 3 as IC50 values.
(§2) Cells were cultured according to the supplier’s instructions. Cells were seeded in 96-well plates at a density of 1.5–3 × 10^3 cells per well and incubated overnight in 0.1 mL of media supplied with 10% Fetal Bovine Serum (Lonza) in a 5% CO2 incubator at 37 °C. On day 2, drugs were added and the samples were incubated for 48h. After treatment, 10 μL of the cell counting kit-8 was added into each well for an additional 2h incubation at 37 °C. The absorbance of each well was determined by an Automatic Elisa Reader System at 450 nm wavelength (deducting 620 nm). CPT was used as the positive control.

[3] = tested on: A549 (carcinomic human alveolar basal epithelial cell); assay: CCK-8 cytotoxicity assay, A549; format: cell-based; details: Homo sapiens, A549, 48 h, A549 cells, 48h, CCK-8
Description: as §1, §2

[4] = tested on: SKOV3 (human ovarian carcinoma); assay: CCK-8 cytotoxicity assay, SKOV3; format: cell-based; details: SK-OV-3, SKOV3 cells, 48h
Description: as §1, §2

[5] = molecular target: T1, human TOP1; assay: TOP1 supercoiled plasmid DNA relaxation assay; format: biochemical; details: for TOP1 Inhibition 30 min: 30 min reaction, compounds at 100 μM, semiquantitative; for TOP1 relaxation activity after preincubation of compound with DNA: 100 μM, compound incubated with DNA for 15 min at 37 °C before TOP1 was added
[6] = tested on: HEK293 (human embryonic kidney); assay: CCK-8 cytotoxicity assay, HEK293; format: cell-based; details: HEK293 cells, 48h
Description: as §1, §2

SMILES	Persistence of TOP1 inhibition over the time course [1]	TOP1 Inhibition 1 min [1]	TOP1 Inhibition 3 min [1]	TOP1 Inhibition 5 min [1]	IC50 [2]	IC50 [3]	IC50 [4]	TOP1 Inhibition 30 min [5]	TOP1 relaxation activity after preincubation of compound with TOP1 [1]	IC50 [6]	TOP1 relaxation activity after preincubation of compound with DNA [5]
O=P(c1ccccc1)(c1ccccc1)c1ccc2c(c1)C1c3ccccc3CC1C(c1ccccc1)N2 (centres unmarked) [Compound 8a, Diphenyl(6-phenyl-6,6a,7,11b-tetrahydro-5H-indeno[2,1-c]quinolin-2-yl)phosphine oxide]	more persistent inhibition	++	++	++	> 50 µM	40.2 ± 7.13 µM	6.35 ± 1.73 µM	++			
O=P(c1ccccc1)(c1ccccc1)c1ccc2c(c1)C1c3ccccc3CC1C(c1ccc(C(F)(F)F)cc1)N2 (centres unmarked) [Compound 8b, Diphenyl(6-(4-(trifluoromethyl)phenyl)-6,6a,7,11b-tetrahydro-5H-indeno[2,1-c]quinolin-2-yl)phosphine oxide]	more persistent inhibition	+++ (strong inhibition)	+++ (strong inhibition)	+++ (strong inhibition)	> 50 µM	25.8 ± 6.98 µM	> 50 µM	+++ (strong inhibition)	the enzyme was inactive, not being able to relax the DNA	> 50 µM	partially relaxing the DNA
O=P(c1ccccc1)(c1ccccc1)c1ccc2c(c1)C1c3ccccc3CC1C(c1ccc(F)cc1)N2 (centres unmarked) [Compound 8c, Diphenyl(6-(4-fluorophenyl)-6,6a,7,11b-tetrahydro-5H-indeno[2,1-c]quinolin-2-yl)phosphine oxide]		++	++	++	10.7 ± 0.43 µM	19.9 ± 3.35 µM	> 50 µM	++		> 50 µM	
O=P(c1ccccc1)(c1ccccc1)c1ccc2c(c1)C1c3ccccc3CC1C(c1cccc3ccccc13)N2 (centres unmarked) [Compound 8g, Diphenyl(6-(naphthalen-1-yl)-6,6a,7,11b-tetrahydro-5H-indeno[2,1-c]quinolin-2-yl)phosphine oxide]		+ (weak inhibition)	+ (weak inhibition)	+ (weak inhibition)	> 50 µM	> 50 µM	> 50 µM	+ (weak inhibition)		> 50 µM	
O=[N+]([O-])c1ccc(C2Nc3ccc(P(=O)(c4ccccc4)c4ccccc4)cc3C3c4ccccc4CC23)cc1 (centres unmarked) [Compound 8k, Diphenyl(6-(4-nitrophenyl)-6,6a,7,11b-tetrahydro-5H-indeno[2,1-c]quinolin-2-yl)phosphine oxide]	more persistent inhibition	+ (weak inhibition)	+ (weak inhibition)	+ (weak inhibition)	> 50 µM	> 50 µM	> 50 µM	+ (weak inhibition)		> 50 µM	
O=P(c1ccccc1)(c1ccccc1)c1ccc2nc(-c3ccc(C(F)(F)F)cc3)c3c(c2c1)-c1ccccc1C3 [Compound 9b, Diphenyl(6-(4-(trifluoromethyl)phenyl)-7H-indeno[2,1-c]quinolin-2-yl)phosphine oxide]		+++ (strong inhibition)	+++ (strong inhibition)	+++ (strong inhibition)	> 50 µM	> 50 µM	> 50 µM	+++ (strong inhibition)	the enzyme was inactive, not being able to relax the DNA	> 50 µM	partially relaxing the DNA
O=P(c1ccccc1)(c1ccccc1)c1ccc2nc(-c3cccc4ccccc34)c3c(c2c1)-c1ccccc1C3 [Compound 9g, Diphenyl(6-(naphthalen-1-yl)-7H-indeno[2,1-c]quinolin-2-yl)phosphine oxide]		++	++	++	> 50 µM	> 50 µM	> 50 µM	++		> 50 µM	
COc1cccc(-c2nc3ccc(P(=O)(c4ccccc4)c4ccccc4)cc3c3c2Cc2ccccc2-3)c1 [Compound 9i, Diphenyl(6-(3-methoxyphenyl)-7H-indeno[2,1-c]quinolin-2-yl)phosphine oxide]		++	++	++	> 50 µM	> 50 µM	> 50 µM	++		> 50 µM	
O=C1c2ccccc2-c2c1c(-c1ccccc1)nc1ccc(P(=O)(c3ccccc3)c3ccccc3)cc21 [Compound 10a, Diphenyl(7-oxo-6-phenyl-7H-indeno[2,1-c]quinolin-2-yl)phosphine oxide]		+ (weak inhibition)	++	++	> 50 µM	> 50 µM	> 50 µM	++		> 50 µM	
O=C1c2ccccc2-c2c1c(-c1ccc(C(F)(F)F)cc1)nc1ccc(P(=O)(c3ccccc3)c3ccccc3)cc21 [Compound 10b, Diphenyl(7-oxo-(6-(4-trifluoromethyl)phenyl)-7H-indeno[2,1-c]quinolin-2-yl)phosphine oxide]		++	++	++	> 50 µM	> 50 µM	> 50 µM	++		> 50 µM	
